Measurements published in the pKa sets of Baltruschat and Czodrowski (2020).

Settings: basic group

| SMILES | pKa |
| --- | --- |
| Cc1cc([S-])[nH+]cn1 | 1.8 |
| Cc1cc(N)nc2ccc3ccccc3c12 | 7.14 |
| COc1cc(O)ccc1C(=N)c1ccccc1 | 5.99 |
| Nc1cc2ccccc2cn1 | 5.05 |
| C(=N\c1ccccc1)/c1ccccc1 | 4.55 |
| CCN(CC)CCCC(C)Nc1ccnc2cc(Br)ccc12 (stereo not given) | 10.2 |
| Cc1nc2c(O)ccc(O)c2n1C | 6.47 |
| Nc1ccc2c(c1)-c1c(ccc3ccccc13)C2 | 4.67 |
| CSCc1ccccn1 | 5.4 |
| CN1C(=N)C(C)(C)c2ccccc21 | 9.25 |
| Cc1cnc2c(ccc3c(C)ccnc32)c1 | 5.57 |
| NCCc1cccc(O)c1O | 8.6 |
| Cc1cccc(C)c1NC(=O)CN(C)C | 7.36 |
| Cc1cc([S-])[nH+]c([S-])n1 | 6.87 |
| C1CCN(CCN2CCCC2)C1 | 9.47 |
| CC(C)N(Cc1ccccc1O)C(C)C | 7.55 |
| Cn1cnc2cccc(N)c21 | 5.79 |
| CC(C)(N)C(C)(C)[NH3+] | 6.56 |
| Oc1onc2c1CCNCC2 | 9.6 |
| NCCC(=O)N[C@@H](Cc1c[nH]cn1)C(=O)[O-] | 9.61 |
| Nc1nc(N)c2cnn(-c3ccccc3)c2n1 | 4.49 |
| Nc1ccnc(N)n1 | 7.26 |
| Cc1cc([O-])[nH+]cn1 | 2.15 |

| SMILES | pKa |
| --- | --- |
| CCC(=O)OC(C)CN(C)C (stereo not given) | 8.26 |
| Cc1ccc2ccc3cccnc3c2n1 | 5.36 |
| NNC(=O)c1ccccc1 | 3.02 |
| CCN(CC)CC(=O)NCc1ccccc1 | 8.07 |
| CNc1ccc[nH+]c1 | -2.17 |
| c1cn[nH]c1 | 2.61 |
| CC(Cl)CN (stereo not given) | 8.54 |
| N/C(CCNc1ccccc1)=N\O | 5.35 |
| CN(C)C(C)(C)C | 10.5 |
| C1CN=C2NCCC2C1 (stereo not given) | 11.7 |
| CSc1ccc(N)cc1[N+](=O)[O-] | 2.47 |
| [O-]c1c(Cl)c(Cl)cc(Cl)c1CN1CCOCC1 | 8.23 |
| Nc1ccccc1C(=O)[O-] | 4.87 |
| COc1ccc(C[NH3+])cc1N | 4.16 |
| NNC(=O)c1cccnc1 | 3.27 |
| CCN(CC)CCNc1cc(C)nc(N)n1 | 9.55 |
| Nc1ccccc1O | 4.55 |
| c1nc2c(ccc3c4c(cnc32)CCCC4)c2c1CCCC2 | 6.23 |
| CC(=O)C(CN1CCOCC1)c1ccccc1 (stereo not given) | 6.23 |
| Cc1ccccc1/C(=N/CCCN(C)C)c1ccc2ccccc2c1 | 8.9 |
| COc1ccc(CN)cc1N | 9.77 |
| C#CC(C)(C)Nc1ccccc1 | 4.26 |
| C/N=c1/scc(C)n1C | 9.97 |

| SMILES | pKa |
| --- | --- |
| CCCN(CCC)Cc1ccccc1O | 8.3 |
| CN1C2CCC(C2)N1C | 6.89 |
| C#CC(C)(C(C)C)N(C)C(C)C (stereo not given) | 8.7 |
| Cc1cc2ccccc2nc1C | 4.93 |
| Nc1cccc2[nH]ncc12 | 3.29 |
| CC(C)N | 10.6 |
| COc1ccc2c(c1)NCCN2 | 5.26 |
| CC1(C)CN1 | 5.37 |
| ClCCN1CCOCC1 | 6.27 |
| CC[NH+](CC)CCCC(C)Nc1cc[nH+]c2ccc(OC)cc12 (stereo not given) | -7.83 |
| Cc1ccc(CNCC[NH3+])cc1 | 6.51 |
| CCNCC(=O)Nc1c(C)cccc1C | 8.06 |
| CNC(C)C(=O)[O-] (stereo not given) | 10.2 |
| Nc1c2ccccc2nc2c1ccc1c([N+](=O)[O-])cccc12 | 7.1 |
| [O-]c1ccccn1 | 11.7 |
| N#CC(C#N)=NNc1ccc(OC(F)(F)F)cc1 | -0.78 |
| CCCCCCCN(CCCCCCC)c1ccccc1 | 3.33 |
| C[NH+](C)CCCCNc1ccnc2cccc([N+](=O)[O-])c12 | 6.71 |
| O=C1C[C@@H]2OCC=C3CN4CC[C@@]56c7ccccc7N1[C@H]5C2[C@@]3(S(=O)(=O)[O-])C[C@H]46 (stereo not given in full) | 7.53 |
| NCC(=O)NCCc1c[nH]cn1 | 8.04 |
| COc1nc2ccccc2nc1OC | -1.15 |
| Cc1cccc(N)n1 | 7.4 |
| N#CCC(=O)NN | 2.34 |

| SMILES | pKa |
| --- | --- |
| CN(C)C(=S)c1ccccc1 | -2.3 |
| C[C@H](N)C(=O)[O-] | 9.72 |
| Cn1ncc2c(N)ncnc21 | 4.32 |
| ClC1CN2CCC1CC2 (stereo not given) | 8.79 |
| CC1CCN(C(C)C=C(c2cccs2)c2cccs2)CC1 (stereo not given) | 8.2 |
| C1CN2CC[C@@H]3OC[C@H]1[C@@H]32 | 9.44 |
| Cc1ccccc1C(=N)c1ccccc1 | 7.21 |
| Nn1cnnc1 | 2.53 |
| C[C@@H]1CCC[C@H](N(C)C)C1 | 10.5 |
| O=C(CN1CCCCC1)NCc1ccccc1 | 7.71 |
| NC(Cc1ccccc1)c1nnn[n-]1 (stereo not given) | 8.18 |
| C[NH+](C)CCCCCNc1c2ccccc2nc2cccc([N+](=O)[O-])c12 | 7.4 |
| NCC[NH2+]CCc1ccccc1 | 6.59 |
| CN1CCC1 | 10.4 |
| Cc1ccc2c(c1)ncn2[C@H]1O[C@@H](CO)[C@H](O)[C@@H](O)[C@@H]1O | 4.32 |
| Fc1cccc2[nH]cnc12 | 4.4 |
| NC(Cc1n[nH]c2ccccc12)C(=O)[O-] (stereo not given) | 8.95 |
| CN(C)/C=N/c1ccccc1O | 7.41 |
| C1CN(CCN2CCOCC2)CCO1 | 6.65 |
| CC[C@@H]1C(=O)OC[C@@H]1Cc1cncn1C | 6.99 |
| COC(=O)CN | 7.64 |
